Values quoted from earlier work, collected in patent US5798310A, “Glyphosate compositions and their use” (Monsanto Europe S.A., priority 1995, dated 1998).

Settings: literature

Row | Structure (SMILES) | effect on herbicidal activity of glyphosate
1 | N.N.O=S(=O)(O)O [ammonium sulphate] | further enhance the herbicidal activity
2 | N#CS [ammonium thiocyanate] | further enhance the herbicidal activity
